This passage reports IC50 and Ratio IC50 results from ChEMBL document CHEMBL1938328, “A review on coumarins as acetylcholinesterase inhibitors for Alzheimer's disease” (Bioorg Med Chem, 2012).

Molecules are shown by their SMILES. Counter-ions that a name gives are not always drawn.

Usually IC50 stands for the point on the concentration scale where inhibition reaches its midpoint.

For assay [1], the target named is T1, Acetylcholinesterase (Rattus norvegicus, UniProt P37136).
T1 sequence (P37136 whole entry): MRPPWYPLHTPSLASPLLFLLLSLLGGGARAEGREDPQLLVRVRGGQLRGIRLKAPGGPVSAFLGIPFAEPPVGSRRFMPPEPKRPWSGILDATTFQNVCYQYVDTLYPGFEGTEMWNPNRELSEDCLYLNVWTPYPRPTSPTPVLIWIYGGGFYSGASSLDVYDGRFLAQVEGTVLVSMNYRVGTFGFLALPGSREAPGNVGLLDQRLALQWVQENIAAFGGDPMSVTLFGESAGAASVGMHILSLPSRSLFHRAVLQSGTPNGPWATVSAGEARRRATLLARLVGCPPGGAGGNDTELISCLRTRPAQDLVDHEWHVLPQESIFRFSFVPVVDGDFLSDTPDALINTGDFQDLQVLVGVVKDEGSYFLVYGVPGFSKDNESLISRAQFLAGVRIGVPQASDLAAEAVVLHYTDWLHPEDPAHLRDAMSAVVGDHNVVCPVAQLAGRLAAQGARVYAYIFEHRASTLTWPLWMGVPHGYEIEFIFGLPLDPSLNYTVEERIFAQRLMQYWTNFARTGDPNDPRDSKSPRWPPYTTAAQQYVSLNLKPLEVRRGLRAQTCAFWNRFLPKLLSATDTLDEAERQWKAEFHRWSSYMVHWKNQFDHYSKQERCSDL
Kind of assay: Inhibition of AChE in rat brain cortical homogenate. The format is tissue-based.

Assay [2] concerns the target Acetylcholinesterase (Homo sapiens, UniProt P22303). Kind of assay: Inhibition of AChE.
Assay [3] can be described thus: Selectivity ratio of IC50 for AChE to IC50 for BChE.

Acetylcholinesterase (Homo sapiens, UniProt P22303), sequence (P22303 whole entry): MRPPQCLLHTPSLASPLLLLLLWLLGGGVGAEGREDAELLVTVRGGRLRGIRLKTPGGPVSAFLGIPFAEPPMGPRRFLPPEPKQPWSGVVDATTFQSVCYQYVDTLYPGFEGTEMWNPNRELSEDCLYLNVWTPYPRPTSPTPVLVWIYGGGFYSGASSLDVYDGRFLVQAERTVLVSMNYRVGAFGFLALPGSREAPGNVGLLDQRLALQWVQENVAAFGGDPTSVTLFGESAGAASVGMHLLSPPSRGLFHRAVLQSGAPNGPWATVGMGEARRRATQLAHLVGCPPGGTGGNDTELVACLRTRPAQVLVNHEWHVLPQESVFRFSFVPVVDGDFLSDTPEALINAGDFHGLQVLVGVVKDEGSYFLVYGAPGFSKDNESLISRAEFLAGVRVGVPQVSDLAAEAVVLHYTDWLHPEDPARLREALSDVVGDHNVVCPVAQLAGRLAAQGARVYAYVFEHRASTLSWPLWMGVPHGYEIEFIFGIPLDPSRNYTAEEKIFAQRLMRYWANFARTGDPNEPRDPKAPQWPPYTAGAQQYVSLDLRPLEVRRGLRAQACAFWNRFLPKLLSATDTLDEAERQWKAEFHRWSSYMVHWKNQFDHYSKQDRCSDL

As for `COc1cc2oc(=O)c(C)c(C)c2cc1OCCCN1CCN(c2ccccc2OC)CC1` [ENSACULIN HYDROCHLORIDE], half-maximal inhibition against Acetylcholinesterase [1] (IC50) required 360 nM. Compound `COc1ccccc1NCc1cc(=O)oc2cc3oc4ccccc4c3cc12` had an IC50 at Acetylcholinesterase [2] of 190 nM. At Acetylcholinesterase [2], `COc1cc2oc(=O)c(OCCCCOc3cc(O)cc(N(C)C)c3)c(C)c2cc1OC` yielded a half-inhibitory concentration (IC50) of 0.236 nM. In addition, in assay [3], the Ratio IC50 was over 300000. On to `COc1cc2c(C)c(OC)c(=O)oc2cc1OCCCCOc1cc(O)cc(N(C)C)c1`, for which half-maximal inhibition at Acetylcholinesterase [2] (IC50) required 275 nM.
